In US20020026053A1, “Novel 3-(substituted) -2- indolinones compounds and use thereof as inhibitors of protein kinase activity” (priority 1997, published 2002):

Target: T1, Met receptor (EGFR/Met chimeric cells, EMR) (Homo sapiens, UniProt P08581)
T1 construct: expressed in transfected cells; the other entry of the earlier key: EGFR (P00533, Epidermal growth factor receptor)
Test: Met Autophosphorylation Assay
Assay type: biochemical
In short: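 Met phosphorylation was measured by capture ELISA. Lysates (90 μg/100 μl, HNTG plus 1 mM PMSF) from transiently transfected EGFR/Met chimera (EMR) cells were bound for 60 min at room temperature to wells holding rabbit anti-Met (C-28) on goat anti-rabbit coat. Phosphotyrosine was the read-out.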

T1 sequence (P08581 with tags, fused parts or gaps): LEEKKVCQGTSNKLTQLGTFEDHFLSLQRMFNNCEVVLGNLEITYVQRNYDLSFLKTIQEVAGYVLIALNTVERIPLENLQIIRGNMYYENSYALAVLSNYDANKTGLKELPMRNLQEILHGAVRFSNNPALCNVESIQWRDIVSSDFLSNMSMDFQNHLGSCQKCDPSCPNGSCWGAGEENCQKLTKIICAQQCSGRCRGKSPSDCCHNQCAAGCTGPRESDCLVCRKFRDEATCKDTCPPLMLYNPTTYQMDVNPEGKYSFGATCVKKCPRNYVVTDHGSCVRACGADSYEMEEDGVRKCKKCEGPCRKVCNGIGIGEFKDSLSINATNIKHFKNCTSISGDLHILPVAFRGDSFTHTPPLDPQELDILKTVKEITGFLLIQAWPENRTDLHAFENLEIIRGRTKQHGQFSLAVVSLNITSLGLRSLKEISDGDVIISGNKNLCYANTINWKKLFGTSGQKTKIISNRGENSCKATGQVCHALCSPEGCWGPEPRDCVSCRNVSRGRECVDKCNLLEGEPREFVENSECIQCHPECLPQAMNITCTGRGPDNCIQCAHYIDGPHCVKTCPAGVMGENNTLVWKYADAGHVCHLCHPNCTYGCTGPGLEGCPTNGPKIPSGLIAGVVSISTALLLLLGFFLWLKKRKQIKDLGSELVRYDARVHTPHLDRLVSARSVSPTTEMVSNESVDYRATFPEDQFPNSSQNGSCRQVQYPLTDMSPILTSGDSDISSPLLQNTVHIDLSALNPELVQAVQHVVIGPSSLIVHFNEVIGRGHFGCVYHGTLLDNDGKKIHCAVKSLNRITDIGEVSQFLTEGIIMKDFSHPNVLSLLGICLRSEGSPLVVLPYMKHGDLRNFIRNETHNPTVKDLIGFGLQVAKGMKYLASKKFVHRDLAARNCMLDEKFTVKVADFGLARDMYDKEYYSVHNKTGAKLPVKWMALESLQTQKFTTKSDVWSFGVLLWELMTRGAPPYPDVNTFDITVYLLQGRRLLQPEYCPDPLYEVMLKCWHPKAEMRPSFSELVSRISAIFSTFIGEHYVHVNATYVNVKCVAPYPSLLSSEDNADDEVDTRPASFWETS

| SMILES | Met Kinase % Inhibition (P.130) [%] |
| --- | --- |
| Cc1c(Br)cc(Br)c2c1C(=Cc1ccc(O)cc1)C(=O)N2 [10719/H07] | 22.9 |
| Cc1c(Br)cc(Br)c2c1C(=Cc1ccc(N(C)C)cc1)C(=O)N2 [10719/H08] | 20.0 |
| Cc1c(Br)cc(Br)c2c1C(=Cc1ccc(F)cc1Cl)C(=O)N2 [10719/H09] | 5.8 |
| Cc1c(Br)cc(Br)c2c1C(=Cc1cccc([N+](=O)[O-])c1)C(=O)N2 [10719/H10] | −5.7 |
| Cc1c(Br)cc(Br)c2c1C(=Cc1ccc(F)cc1C(F)(F)F)C(=O)N2 [10719/H11] | 50.5 |
| Cc1c(Br)cc(Br)c2c1C(=Cc1c(F)cc(F)cc1F)C(=O)N2 [10720/H02] | 64.1 |
| COc1cc(O)ccc1C=C1C(=O)Nc2c(Br)cc(Br)c(C)c21 [10720/H03] | 40.0 |
| N#Cc1ccccc1C=C1C(=O)Nc2ccc(CCCl)cc21 [10735/G07] | 37.1 |
| O=C1Nc2ccc(CCCl)cc2C1=Cc1c(F)cccc1F [10735/G08] | 29.9 |
| O=C1Nc2ccc(CCCl)cc2C1=Cc1cccc2ccccc12 [10735/G09] | 16.8 |
| O=C1Nc2ccc(CCCl)cc2C1=Cc1ccc(Cl)cc1Cl [10735/G10] | 37.8 |
| O=C1Nc2ccc(CCCl)cc2C1=Cc1ccc(-c2ccccc2)cc1 [10735/G11] | 23.0 |
| Cc1ccccc1C=C1C(=O)Nc2c(Br)cc(Br)c(C)c21 [10735/H02] | 29.2 |
| Cc1c(Br)cc(Br)c2c1C(=Cc1ccc(F)c(F)c1)C(=O)N2 [10735/H03] | 40.8 |
| Cc1c(Br)cc(Br)c2c1C(=Cc1cc(F)cc(F)c1)C(=O)N2 [10735/H04] | 42.9 |
| Cc1c(Br)cc(Br)c2c1C(=Cc1cccc(C(F)(F)F)c1)C(=O)N2 [10735/H05] | 49.8 |
| Cc1c(Br)cc(Br)c2c1C(=Cc1cc(C(F)(F)F)cc(C(F)(F)F)c1)C(=O)N2 [10735/H06] | 57.2 |
| Cc1c(Br)cc(Br)c2c1C(=Cc1ccccc1C#N)C(=O)N2 [10735/H07] | 48.5 |
| Cc1c(Br)cc(Br)c2c1C(=Cc1c(F)cccc1F)C(=O)N2 [10735/H08] | 59.2 |
| Cc1c(Br)cc(Br)c2c1C(=Cc1cccc3ccccc13)C(=O)N2 [10735/H09] | 22.4 |
| Cc1c(Br)cc(Br)c2c1C(=Cc1ccc(Cl)cc1Cl)C(=O)N2 [10735/H10] | 29.9 |
| Cc1c(Br)cc(Br)c2c1C(=Cc1ccc(-c3ccccc3)cc1)C(=O)N2 [10735/H11] | 22.8 |
| O=C1Nc2c(Br)cc(Br)cc2C1=Cc1ccc(Cl)cc1 [10736/A02] | 72.5 |
| O=C1Nc2c(Br)cc(Br)cc2C1=Cc1ccccc1C(F)(F)F [10736/A03] | 42.6 |
| Cc1cccc(C=C2C(=O)Nc3c(Br)cc(Br)cc32)c1 [10736/A04] | 75.2 |
| Cc1ccc(C=C2C(=O)Nc3c(Br)cc(Br)cc32)cc1 [10736/A05] | 73.6 |
| O=C1Nc2c(Br)cc(Br)cc2C1=Cc1cccc(Cl)c1 [10736/A06] | 69.7 |

| SMILES | Met Kinase % Inhibition (P.130) [%] |
| --- | --- |
| O=C1Nc2c(Br)cc(Br)cc2C1=Cc1cccc(F)c1 [10736/A07] | 55.2 |
| O=C1Nc2c(Br)cc(Br)cc2C1=Cc1ccccc1F [10736/A08] | 58.7 |
| CCc1ccc(C=C2C(=O)Nc3c(Br)cc(Br)cc32)cc1 [10736/A09] | 69.7 |
| COc1cccc(C=C2C(=O)Nc3c(Br)cc(Br)cc32)c1 [10736/A10] | 65.0 |
| O=C1Nc2c(Br)cc(Br)cc2C1=Cc1ccccc1Cl [10736/A11] | 46.1 |
| O=C1Nc2ccc(I)cc2C1=Cc1ccc(Cl)cc1 [10736/B02] | 73.6 |
| O=C1Nc2ccc(I)cc2C1=Cc1ccccc1C(F)(F)F [10736/B03] | 65.5 |
| Cc1cccc(C=C2C(=O)Nc3ccc(I)cc32)c1 [10736/B04] | 65.5 |
| Cc1ccc(C=C2C(=O)Nc3ccc(I)cc32)cc1 [10736/B05] | 63.9 |
| O=C1Nc2ccc(I)cc2C1=Cc1cccc(Cl)c1 [10736/B06] | 60.6 |
| O=C1Nc2ccc(I)cc2C1=Cc1cccc(F)c1 [10736/B07] | 87.2 |
| O=C1Nc2ccc(I)cc2C1=Cc1ccccc1F [10736/B08] | 59.3 |
| CCc1ccc(C=C2C(=O)Nc3ccc(I)cc32)cc1 [10736/B09] | 55.2 |
| COc1cccc(C=C2C(=O)Nc3ccc(I)cc32)c1 [10736/B10] | 52.5 |
| O=C1Nc2ccc(I)cc2C1=Cc1ccccc1Cl [10736/B11] | 47.0 |
| Cc1c(Br)ccc2c1C(=Cc1ccc(Cl)cc1)C(=O)N2 [10736/C02] | 50.1 |
| Cc1c(Br)ccc2c1C(=Cc1ccccc1C(F)(F)F)C(=O)N2 [10736/C03] | 9.9 |
| Cc1cccc(C=C2C(=O)Nc3ccc(Br)c(C)c32)c1 [10736/C04] | 49.0 |
| Cc1ccc(C=C2C(=O)Nc3ccc(Br)c(C)c32)cc1 [10736/C05] | 44.6 |
| Cc1c(Br)ccc2c1C(=Cc1cccc(Cl)c1)C(=O)N2 [10736/C06] | 45.2 |
| Cc1c(Br)ccc2c1C(=Cc1cccc(F)c1)C(=O)N2 [10736/C07] | 55.6 |
| Cc1c(Br)ccc2c1C(=Cc1ccccc1F)C(=O)N2 [10736/C08] | 49.2 |
| CCc1ccc(C=C2C(=O)Nc3ccc(Br)c(C)c32)cc1 [10736/C09] | 27.9 |
| COc1cccc(C=C2C(=O)Nc3ccc(Br)c(C)c32)c1 [10736/C10] | 18.7 |
| Cc1c(Br)ccc2c1C(=Cc1ccccc1Cl)C(=O)N2 [10736/C11] | 11.0 |
| CNS(=O)(=O)c1ccc2c(c1)C(=Cc1ccc(Cl)cc1)C(=O)N2 [10736/D02] | 44.4 |
| CNS(=O)(=O)c1ccc2c(c1)C(=Cc1ccccc1C(F)(F)F)C(=O)N2 [10736/D03] | 14.7 |

| SMILES | Met Kinase % Inhibition (P.130) [%] |
| --- | --- |
| CNS(=O)(=O)c1ccc2c(c1)C(=Cc1cccc(C)c1)C(=O)N2 [10736/D04] | 8.1 |
| CNS(=O)(=O)c1ccc2c(c1)C(=Cc1ccc(C)cc1)C(=O)N2 [10736/D05] | 3.9 |
| CNS(=O)(=O)c1ccc2c(c1)C(=Cc1cccc(Cl)c1)C(=O)N2 [10736/D06] | 14.7 |
| CNS(=O)(=O)c1ccc2c(c1)C(=Cc1cccc(F)c1)C(=O)N2 [10736/D07] | 15.4 |
| CNS(=O)(=O)c1ccc2c(c1)C(=Cc1ccccc1F)C(=O)N2 [10736/D08] | 13.0 |
| CCc1ccc(C=C2C(=O)Nc3ccc(S(=O)(=O)NC)cc32)cc1 [10736/D09] | 14.1 |
| CNS(=O)(=O)c1ccc2c(c1)C(=Cc1cccc(OC)c1)C(=O)N2 [10736/D10] | 16.9 |
| CNS(=O)(=O)c1ccc2c(c1)C(=Cc1ccccc1Cl)C(=O)N2 [10736/D11] | 22.6 |
| O=C1Nc2ccc(S(=O)(=O)Nc3ccc(C(F)(F)F)cc3)cc2C1=Cc1ccc(Cl)cc1 [10736/E02] | 81.5 |
| O=C1Nc2ccc(S(=O)(=O)Nc3ccc(C(F)(F)F)cc3)cc2C1=Cc1ccccc1C(F)(F)F [10736/E03] | 33.0 |
| Cc1cccc(C=C2C(=O)Nc3ccc(S(=O)(=O)Nc4ccc(C(F)(F)F)cc4)cc32)c1 [10736/E04] | 61.8 |
| Cc1ccc(C=C2C(=O)Nc3ccc(S(=O)(=O)Nc4ccc(C(F)(F)F)cc4)cc32)cc1 [10736/E05] | 57.6 |
| O=C1Nc2ccc(S(=O)(=O)Nc3ccc(C(F)(F)F)cc3)cc2C1=Cc1cccc(Cl)c1 [10736/E06] | 66.6 |
| O=C1Nc2ccc(S(=O)(=O)Nc3ccc(C(F)(F)F)cc3)cc2C1=Cc1cccc(F)c1 [10736/E07] | 45.9 |
| O=C1Nc2ccc(S(=O)(=O)Nc3ccc(C(F)(F)F)cc3)cc2C1=Cc1ccccc1F [10736/E08] | 52.3 |
| CCc1ccc(C=C2C(=O)Nc3ccc(S(=O)(=O)Nc4ccc(C(F)(F)F)cc4)cc32)cc1 [10736/E09] | 53.8 |
| COc1cccc(C=C2C(=O)Nc3ccc(S(=O)(=O)Nc4ccc(C(F)(F)F)cc4)cc32)c1 [10736/E10] | 37.8 |
| O=C1Nc2ccc(S(=O)(=O)Nc3ccc(C(F)(F)F)cc3)cc2C1=Cc1ccccc1Cl [10736/E11] | 64.4 |
| O=C1Nc2ccc(S(=O)(=O)N3CCOCC3)cc2C1=Cc1ccc(Cl)cc1 [10736/F02] | 69.4 |
| O=C1Nc2ccc(S(=O)(=O)N3CCOCC3)cc2C1=Cc1ccccc1C(F)(F)F [10736/F03] | 23.9 |
| Cc1cccc(C=C2C(=O)Nc3ccc(S(=O)(=O)N4CCOCC4)cc32)c1 [10736/F04] | 45.2 |
| Cc1ccc(C=C2C(=O)Nc3ccc(S(=O)(=O)N4CCOCC4)cc32)cc1 [10736/F05] | 19.8 |
| O=C1Nc2ccc(S(=O)(=O)N3CCOCC3)cc2C1=Cc1cccc(Cl)c1 [10736/F06] | 49.0 |
| O=C1Nc2ccc(S(=O)(=O)N3CCOCC3)cc2C1=Cc1cccc(F)c1 [10736/F07] | 10.7 |
| O=C1Nc2ccc(S(=O)(=O)N3CCOCC3)cc2C1=Cc1ccccc1F [10736/F08] | −0.2 |
| CCc1ccc(C=C2C(=O)Nc3ccc(S(=O)(=O)N4CCOCC4)cc32)cc1 [10736/F09] | 40.2 |
